Paper PMC6273226, “New Isoxazolidine-Conjugates of Quinazolinones—Synthesis, Antiviral and Cytostatic Activity” (Molecules, 2016)
Where two headings read alike, the source gives them in different places.

Legend:
influenza A virus = system: influenza A virus; set-up: method as in PMID 26017319; details: ref [34]; cited from earlier work
TK+ VZV Oka strain = assay: microbe, parasite or virus in culture; type: cell-based, varicella-zoster virus; details: Human alphaherpesvirus 3, HEL, read-out: Antiviral Activity EC50 TK+ VZV Strain
TK- VZV 07-1 strain = assay: microbe, parasite or virus in culture; type: cell-based, varicella-zoster virus; details: for EC50: Human alphaherpesvirus 3, HEL, read-out: Antiviral Activity EC50 TK- VZV Strain; for activity toward TK- VZV strain: result in words
[1] = system: human embryonic lung (HEL) cells; details: for Cytotoxicity Cell Morphology MCC: HEL cell cultures, minimum cytotoxic concentration; for cytotoxicity toward uninfected cells: at concentration up to 100 μM
Vero cells = system: Vero cells; set-up: method as in doi:10.1016/j.phytol.2015.02.007; details: ref [33]; cited from earlier work
[2] = system: human cytomegalovirus AD-169 strain; assay: Antiviral activity against human cytomegalovirus AD-169 strain in HEL cell cultures; type: cell-based; details: Human betaherpesvirus 5, AD169
[3] = system: human cytomegalovirus Davis strain; assay: Antiviral activity against human cytomegalovirus Davis strain in HEL cell cultures; type: cell-based; details: Human betaherpesvirus 5
murine leukemia L1210 = assay: Cytostatic activity, inhibition of L1210 cell proliferation; type: cell-based; details: Mus musculus, L1210, 48 h, read-out: IC50 L1210
Procedure: (§1) The 50% cytostatic inhibitory concentration (IC50) causing a 50% decrease in cell proliferation was determined against murine leukemia L1210, human lymphocyte CEM, human cervix carcinoma HeLa and immortalized human dermal microvacsular endothelial cells (HMEC-1).
(§2) Murine leukemia (L1210), human T-lymphocyte (CEM), human cervix carcinoma (HeLa) and immortalized human dermal microvascular endothelial cells (HMEC-1) were suspended at 300,000–500,000 cells/mL of culture medium, and 100 μL of a cell suspension was added to 100 μL of an appropriate dilution of the test compounds in 200 μL-wells of 96-well microtiter plates. After incubation at 37 °C for two (L1210), three (CEM) or four (HeLa) days, the cell number was determined using a Coulter counter. The IC50 was defined as the compound concentration required to inhibit cell proliferation by 50%.

human T-lymphocyte (CEM) = assay: Cytostatic activity, inhibition of CEM cell proliferation; type: cell-based; details: 72 h, read-out: IC50 CEM
Procedure: as §1, §2

[4] = system: human cervix carcinoma (HeLa); assay: Cytostatic activity, inhibition of HeLa cell proliferation; type: cell-based; details: 96 h, read-out: IC50 HeLa
Procedure: as §1, §2

[5] = system: immortalized human dermal microvascular endothelial cells (HMEC-1); assay: Cytostatic activity, inhibition of HMEC-1 cell proliferation; type: cell-based; details: inhibition of cell proliferation by 50%
Procedure: as §1, §2

human cytomegalovirus = assay: Antiviral activity against human cytomegalovirus, strain not given (AD-169 and Davis); type: cell-based; details: Human betaherpesvirus 5; range given for four compounds, strain not specified
[6] = system: tobacco mosaic virus (TMV); set-up: method as in PMID 23962399; details: ref [30]; cited from earlier work
[7] = system: various cancer cell lines; set-up: method as in doi:10.1002/hlca.201200433, PMID 21495659; details: ref [31],[32]; cited from earlier work
[8] = system: L1210, CEM, HeLa and HMEC-1 cells; assay: Cytostatic activity against the tested cell lines (L1210, CEM, HeLa, HMEC-1), summarised in text; type: cell-based; details: for inhibition of cell proliferation at the highest tested concentration: highest tested concentration 250 μM, L1210, CEM
Procedure: as §1, §2

Structure (SMILES) | EC50 (TK+ VZV Oka strain) | EC50 (TK- VZV 07-1 strain) | Cytotoxicity Cell Morphology MCC ([1]; Table 2 (VZV)) | IC50 (murine leukemia L1210) | IC50 (human T-lymphocyte (CEM)) | IC50 [4] | IC50 [5] | other results
O=c1c2ccccc2nc(-c2ccncc2)n1CCCN1CCOCC1 [Compound 5] | – | – | – | – | – | – | – | activity against influenza A virus (influenza A virus): slight activity
O=c1[nH]c(=O)n([C@H]2C[C@H](O)[C@@H](CO)O2)cc1/C=C/Br [Brivudin, reference compound] | 0.019 µM | 25.6 µM | >100 μM | – | – | – | – | –
O=c1[nH]c(-c2c[nH]c3ccccc23)nc2ccccc12 [Compound 3] | – | – | – | – | – | – | – | cytotoxicity against Vero cells (Vero cells): cytotoxic
CCOP(=O)(OCC)[C@H]1C[C@H](c2nc3ccccc3c(=O)n2Cc2ccc([N+](=O)[O-])cc2)ON1C (relative stereo) [trans-11e/cis-11e (90:10), Diethyl trans-(2-methyl-5-(3-(4-nitrobenzyl)-4-oxo-3,4-dihydroquinazolin-2-yl)isoxazolidin-3-yl)-phosphonate] | 34.2 µM | 42.9 µM | 100 μM | 59 ± 32 µM | 34 ± 12 µM | 76 ± 4 µM | 102 ± 3 µM | EC50 [2]: 44.7 µM; EC50 [3]: 20 µM; EC50 (human cytomegalovirus): 27 to 45 µM
CCOP(=O)(OCC)[C@H]1C[C@H](c2nc3ccccc3c(=O)n2Cc2cccc(F)c2)ON1C (relative stereo) [trans-11g, Diethyl trans-(5-(3-(3-fluorobenzyl)-4-oxo-3,4-dihydroquinazolin-2-yl)-2-methylisoxazolidin-3-yl)-phosphonate] | – | – | – | 35 ± 12 µM | 26 ± 6 µM | 62 ± 9 µM | 74 ± 3 µM | EC50 [2]: > 100 µM; EC50 [3]: 27.6 µM; EC50 (human cytomegalovirus): 27 to 45 µM
O=c1c2ccccc2nc(-c2ccncc2)n1CCCn1ccnc1 [Compound 6] | – | – | – | – | – | – | – | activity against influenza A virus (influenza A virus): slight activity
Nc1nc(O)c2ncn(COC(CO)CO)c2n1 [Ganciclovir, reference compound] | – | – | – | – | – | – | – | EC50 [2]: 10.5 µM; EC50 [3]: 0.63 µM; Cytotoxicity Cell Morphology MCC ([1]; Table 3 (HCMV)): >350 μM
Nc1ccn(C[C@@H](CO)OCP(=O)(O)O)c(=O)n1 [Cidofovir, reference compound] | – | – | – | – | – | – | – | EC50 [2]: 1.49 µM; EC50 [3]: 0.23 µM; Cytotoxicity Cell Morphology MCC ([1]; Table 3 (HCMV)): >300 μM
CCOP(=O)(OCC)[C@H]1C[C@H](c2nc3ccccc3c(=O)n2Cc2ccccc2)ON1C (relative stereo) [trans-11b/cis-11b (90:10), Diethyl trans-(5-(3-benzyl-4-oxo-3,4-dihydroquinazolin-2-yl)-2-methylisoxazolidin-3-yl)phosphonate] | – | – | – | 49 ± 23 µM | 28 ± 4 µM | 82 ± 5 µM | 83 ± 16 µM | EC50 [2]: 44.7 µM; EC50 [3]: > 20 µM; EC50 (human cytomegalovirus): 27 to 45 µM
O=c1[nH]cc(F)c(=O)[nH]1 [5-Fluorouracil, reference compound] | – | – | – | – | – | – | – | IC50 (murine leukemia L1210; inhibition of cell proliferation by 50%, two days incubation): 0.33 ± 0.17 µM; IC50 (human T-lymphocyte (CEM); inhibition of cell proliferation by 50%, three days incubation): 18 ± 5 µM; IC50 ([4]; inhibition of cell proliferation by 50%, four days incubation): 0.54 ± 0.12 µM
CCOP(=O)(OCC)[C@H]1C[C@H](c2nc3ccccc3c(=O)n2Cc2ccccc2F)ON1C (relative stereo) [trans-11f/cis-11f (90:10), Diethyl trans-(5-(3-(2-fluorobenzyl)-4-oxo-3,4-dihydroquinazolin-2-yl)-2-methylisoxazolidin-3-yl)-phosphonate] | 6.84 µM | > 20 µM | 100 μM | 33 ± 7 µM | 29 ± 13 µM | 76 ± 11 µM | 77 µM | activity toward TK- VZV strain (TK- VZV 07-1 strain): no activity; cytotoxicity toward uninfected cells [1]: without exhibiting cytotoxicity
O=c1[nH]c(Cc2ccc(O)cc2)nc2ccccc12 [Compound 1, 2-(4-hydroxybenzyl)quinazolin-4(3H)-one] | – | – | – | – | – | – | – | inhibitory properties on the replication of tobacco mosaic virus (TMV) [6]: strong inhibitory properties; cytotoxicity toward various cancer cell lines [7]: significant cytotoxicity
CCOP(=O)(OCC)[C@H]1C[C@H](c2nc3ccccc3c(=O)n2C)ON1C (relative stereo) [trans-11j, Diethyl trans-(2-methyl-5-(3-methyl-4-oxo-3,4-dihydroquinazolin-2-yl)isoxazolidin-3-yl)phosphonate] | – | – | – | > 250 µM | > 250 µM | > 250 µM | > 250 µM | inhibition of cell proliferation at the highest tested concentration [8]: did not inhibit cell proliferation
CCOP(=O)(OCC)[C@H]1C[C@H](c2nc3ccccc3c(=O)n2Cc2cccc([N+](=O)[O-])c2)ON1C (relative stereo) [trans-11d/cis-11d (90:10), Diethyl trans-(2-methyl-5-(3-(3-nitrobenzyl)-4-oxo-3,4-dihydroquinazolin-2-yl)isoxazolidin-3-yl)-phosphonate] | – | – | – | 28 ± 11 µM | 21 ± 4 µM | 50 ± 4 µM | 58 µM | –
CCOP(=O)(OCC)[C@H]1C[C@H](c2nc3ccccc3c(=O)n2CC)ON1C (relative stereo) [trans-11k/cis-11k (97:3), Diethyl trans-(5-(3-ethyl-4-oxo-3,4-dihydroquinazolin-2-yl)-2-methylisoxazolidin-3-yl)phosphonate] | 38.8 µM | 41.6 µM | >100 μM | 101 ± 17 µM | 85 ± 13 µM | 97 ± 10 µM | 86 ± 11 µM | IC50 ([8]; range over L1210, CEM, read-out: IC50 towards the tested cell lines): 85 to 101 µM
CCOP(=O)(OCC)[C@H]1C[C@H](c2nc3ccccc3c(=O)n2Cc2ccc(F)cc2F)ON1C (relative stereo) [trans-11i/cis-11i (97:3), Diethyl trans-(5-(3-(2,4-difluorobenzyl)-4-oxo-3,4-dihydroquinazolin-2-yl)-2-methylisoxazolidin-3-yl)-phosphonate] | 9.44 µM | > 20 µM | 100 μM | 26 ± 2 µM | 24 ± 8 µM | 55 ± 10 µM | 67 ± 4 µM | activity toward TK- VZV strain (TK- VZV 07-1 strain): no activity; cytotoxicity toward uninfected cells [1]: without exhibiting cytotoxicity
CCOP(=O)(OCC)[C@H]1C[C@H](c2nc3ccccc3c(=O)n2Cc2ccccc2[N+](=O)[O-])ON1C (relative stereo) [trans-11c, Diethyl trans-(2-methyl-5-(3-(2-nitrobenzyl)-4-oxo-3,4-dihydroquinazolin-2-yl)isoxazolidin-3-yl)-phosphonate] | 46.5 µM | 100 µM | >100 μM | 87 ± 22 µM | 76 ± 9 µM | 97 µM | 92 ± 1 µM | EC50 [2]: > 100 µM; EC50 [3]: 44.7 µM; EC50 (human cytomegalovirus): 27 to 45 µM
O=c1[nH]c(-c2ccncc2)nc2ccccc12 [Compound 4] | – | – | – | – | – | – | – | activity against influenza A virus (influenza A virus): slight activity
CCOP(=O)(OCC)[C@H]1C[C@H](c2nc3ccccc3c(=O)n2Cc2ccc(F)cc2)ON1C (relative stereo) [trans-11h, Diethyl trans-(5-(3-(4-fluorobenzyl)-4-oxo-3,4-dihydroquinazolin-2-yl)-2-methylisoxazolidin-3-yl)-phosphonate] | 15.3 µM | > 20 µM | 100 μM | 26 ± 1 µM | 30 ± 12 µM | 58 ± 5 µM | 78 ± 1 µM | activity toward TK- VZV strain (TK- VZV 07-1 strain): no activity; cytotoxicity toward uninfected cells [1]: without exhibiting cytotoxicity
O=C(c1ccc(O)cc1)c1nc2ccccc2c(=O)[nH]1 [Compound 2] | – | – | – | – | – | – | – | melting point: 67 to 68 °C; inhibitory properties on the replication of tobacco mosaic virus (TMV) [6]: only slightly active
CCOP(=O)(OCC)[C@H]1C[C@H](c2nc3ccccc3c(=O)[nH]2)ON1C (relative stereo) [trans-11a, Diethyl trans-(2-methyl-5-(4-oxo-3,4-dihydroquinazolin-2-yl)isoxazolidin-3-yl)phosphonate] | – | – | – | > 250 µM | > 250 µM | > 250 µM | > 250 µM | inhibition of cell proliferation at the highest tested concentration [8]: did not inhibit cell proliferation
